Reference: patent US8247610B2, “Amine linked modulators of γ-secretase” (Janssen Pharmaceutica N.V., priority 2007, dated 2012)

biological target: T1, γ-secretase (Homo sapiens, UniProt P49768); assay: Screening for γ-secretase-modulating activity in SKNBE2 cells carrying the APP 695 wild type; assay type: cell-based; details: 0.3 μM; SKNBE2 cells carrying APP 695 wild type
T1 construct: endogenous in cells; host or cells: SKNBE2 cells carrying APP 695 wild type
Experimental: Screening of the Compounds of the Invention for γ-Secretase-Modulating Activity
Screening was carried out using SKNBE2 cells carrying the APP 695—wild type, grown in DMEM/NUT-mix F12 (HAM) provided by Gibco (cat no. 31330-38) containing 5% Serum/Fe supplemented with 1% non-essential amino acids.
Cells were grown to near confluency.
The screening was performed using the assay as described in Citron et al (1997) Nature Medicine 3: 67.

| inhibition at 0.3 µM | Compound | inhibition @ 0.3 μM |
| --- | --- | --- |
| – | 2-(5-(2,4-difluorobenzylamino)-4′-(trifluoromethyl)biphenyl-3-yl)-4-methyl pentanoic acid [Compound 52] | 0% inhi- bition @ 0.3 μM |
| 18% | CC(C)CC(C(=O)O)c1cc(NCc2ccc(C(C)(C)C)cc2)cc(-c2ccc(C(F)(F)F)cc2)c1 (stereo not shown) [Compound 37, 2-[5-(4-tert-Butyl-benzylamino)-4′-trifluoromethyl-biphenyl-3-yl]-4-methyl-pentanoic acid] | – |
| 0% | CC(C)CC(C(=O)O)c1cc(-c2ccc(C(F)(F)F)cc2)cc(N2CCCc3ccccc32)c1 (stereo not shown) [Compound 28, 2-[5-(3,4-Dihydro-2H-quinolin-1-yl)-4′-trifluoromethyl-biphenyl-3-yl]-4-methyl-pentanoic acid] | – |
| 0% | CC(C)C[C@@H](C(=O)O)c1cc(NCc2ccc(C#N)cc2)cc(-c2ccc(C(F)(F)F)cc2)c1 [Compound 47, (R) 2-[5-(4-Cyano-benzylamino)-4′-trifluoromethyl-biphenyl-3-yl]-4-methyl-pentanoic acid] | – |
| 0% | CC(C)CC(C(=O)O)c1cc(-c2ccc(C(F)(F)F)cc2)cc(N2CCc3ccccc32)c1 (stereo not shown) [Example 24, 2-[5-(2,3-Dihydro-indol-1-yl)-4′-trifluoromethyl-biphenyl-3-yl]-4-methyl-pentanoic acid] | – |
| 22% | CC(C)CC(C(=O)O)c1cc(NC2CCCc3ccccc32)cc(-c2ccc(C(F)(F)F)cc2)c1 (stereo not shown) [Compound 34, 4-Methyl-2-[5-(1,2,3,4-tetrahydro-naphthalen-1-ylamino)-4′-trifluoromethyl-biphenyl-3-yl]-pentanoic acid] | – |
| 21% | CC(C)CC(=O)N(c1ccc(Cl)cc1)c1cc(-c2ccc(C(F)(F)F)cc2)cc(C(CC(C)C)C(=O)O)c1 (stereo not shown) [Example 23, 2-{5-[(4-Chloro-phenyl)-(3-methyl-butyryl)-amino]-4′-trifluoromethyl-biphenyl-3-yl}-4-methyl-pentanoic acid] | – |
| 6% | CC(C)C[C@@H](C(=O)O)c1cc(NCc2cc(C(F)(F)F)cc(C(F)(F)F)c2)cc(-c2ccc(C(F)(F)F)cc2)c1 [Compound 46, (R) 2-[5-(3,5-Bis-trifluoromethyl-benzylamino)-4′-trifluoromethyl-biphenyl-3-yl]-4-methyl-pentanoic acid] | – |
| 0% | CC(C)C[C@@H](C(=O)O)c1cc(NCc2cc(F)cc(F)c2)cc(-c2ccc(C(F)(F)F)cc2)c1 [Compound 43, (R) 2-[5-(3,5-Difluoro-benzylamino)-4′-trifluoromethyl-biphenyl-3-yl]-4-methyl-pentanoic acid] | – |
| 11% | CC(C)CCC(Nc1cc(CC(=O)O)cc(-c2ccc(C(F)(F)F)cc2)c1)c1cc(F)cc(F)c1 (stereo not shown) [Compound 33] | – |
| 65% | CC(C)CCC(c1cc(F)cc(F)c1)N(C)c1cc(-c2ccc(C(F)(F)F)cc2)cc(C(CC(C)C)C(=O)O)c1 (stereo not shown) [Compound 50, 2-(5-{[1-(3,5-Difluoro-phenyl)-4-methyl-pentyl]-methyl-amino}-4′-trifluoromethyl-biphenyl-3-yl)-4-methyl-pentanoic acid] | – |

same assay, conditions: SKNBE2 cells carrying APP 695 wild type

| EC50 | Compound |
| --- | --- |
| 220 nM | CC(C)CCN(Cc1cc(C(F)(F)F)cc(C(F)(F)F)c1)c1cc(-c2ccc(C(F)(F)F)cc2)cc([C@@H](CC(C)C)C(=O)O)c1 [Compound 49, (R) 2-{5-[(3,5-Bis-trifluoromethyl-benzyl)-(3-methyl-butyl)-amino]-4′-trifluoromethyl-biphenyl-3-yl}-4-methyl-pentanoic acid] |
| 270 nM | CC(C)CCN(Cc1cc(-c2ccc(C(F)(F)F)cc2)cc(C(CC(C)C)C(=O)O)c1)Cc1cc(F)c(F)c(F)c1 (stereo not shown) [Compound 54, 4-Methyl-2-(5-{[(3-methyl-butyl)-(3,4,5-trifluoro-benzyl)-amino]-methyl}-4′-trifluoromethyl-biphenyl-3-yl)-pentanoic acid] |
| 65 nM | CC(C)CCN(Cc1cc(-c2ccc(C(F)(F)F)cc2)cc([C@@H](CC(C)C)C(=O)O)c1)Cc1ccc(F)c(F)c1 (stereo in doubt) [Example 5, 2-(5-{[(3,4-Difluoro-benzyl)-(3-methyl-butyl)-amino]-methyl}-4′-trifluoromethyl-biphenyl-3-yl)-4-methyl-pentanoic acid] |
| 850 nM | CC(C)CC(C(=O)O)c1cc(-c2ccc(C(F)(F)F)cc2)cc(N(C)c2ccc(C(F)(F)F)nc2)c1 (stereo not shown) [Example 15, 4-Methyl-2-{5-[methyl-(6-trifluoromethyl-pyridin-3-yl)-amino]-4′-trifluoromethyl-biphenyl-3-yl}-pentanoic acid] |
| 230 nM | CC(C)CCC(Nc1cc(-c2ccc(C(F)(F)F)cc2)cc(C(CC(C)C)C(=O)O)c1)c1cc(F)c(F)c(F)c1 (stereo not shown) [Compound 38, 4-Methyl-2-{5-[4-methyl-1-(3,4,5-trifluoro-phenyl)-pentylamino]-4′-trifluoromethyl-biphenyl-3-yl}-pentanoic acid] |
| 150 nM | CC(C)CCN(c1ccc(Cl)cc1)c1cc(-c2ccc(C(F)(F)F)cc2)cc(C(CC(C)C)C(=O)O)c1 (stereo not shown) [Example 18, 2-{5-[(4-Chloro-phenyl)-(3-methyl-butyl)-amino]-4′-trifluoromethyl-biphenyl-3-yl}-4-methyl-pentanoic acid] |
| 600 nM | CC(C)CC(C(=O)O)c1cc(-c2cc(F)cc(C(F)(F)F)c2)cc(N(C)c2cc(C(F)(F)F)cc(C(F)(F)F)c2)c1 (stereo not shown) [Example 25, 2-[5′-Fluoro-5-(N-[3,5-bis-(trifluoromethyl)phenyl]-N-methylamino)-3′-trifluoromethyl-biphenyl-3-yl]-4-methyl-pentanoic acid] |
| 620 nM | CC(C)CC(C(=O)O)c1cc(-c2ccc(C(F)(F)F)cc2)cc(N(C)c2ccc(Cl)cc2)c1 (stereo not shown) [Example 1, 2-{5-[(4-Chloro-phenyl)-methyl-amino]-4′-trifluoromethyl-biphenyl-3-yl}-4-methyl-pentanoic acid] |
| 360 nM | CC(C)CC(C(=O)O)c1cc(-c2ccc(C(F)(F)F)cc2)cc(N2CCCc3ccc(C(F)(F)F)cc32)c1 (stereo not shown) [Compound 26, 4-Methyl-2-[4′-trifluoromethyl-5-(7-trifluoromethyl-3,4-dihydro-2H-quinolin-1-yl)-biphenyl-3-yl]-pentanoic acid] |
| 160 nM | CC(C)CC(C(=O)O)c1cc(-c2ccc(C(F)(F)F)cc2)cc(N(C)c2cc(C(F)(F)F)ccc2C(F)(F)F)c1 (stereo not shown) [Example 12, 2-{5-[(2,5-Bis-trifluoromethyl-phenyl)-methyl-amino]-4′-trifluoromethyl-biphenyl-3-yl}-4-methyl-pentanoic acid] |
| 220 nM | CC(C)CCC(Nc1cc(-c2ccc(C(F)(F)F)cc2)cc(C(CC(C)C)C(=O)O)c1)c1cc(C(F)(F)F)cc(C(F)(F)F)c1 (stereo not shown) [Compound 30, 2-{5-[1-(3,5-Bis-trifluoromethyl-phenyl)-4-methyl-pentylamino]-4′-trifluoromethyl-biphenyl-3-yl}-4-methyl-pentanoic acid] |
| 190 nM | CC(C)CC(C(=O)O)c1cc(-c2ccc(C(F)(F)F)cc2)cc(N(C)c2cc(C(F)(F)F)cc(C(F)(F)F)c2)c1 (stereo not shown) [Example 10, 2-{5-[(3,5-Bis-trifluoromethyl-phenyl)-methyl-amino]-4′-trifluoromethyl-biphenyl-3-yl}-4-methyl-pentanoic acid] |
| 260 nM | CC(C)CCN(c1cc(-c2ccc(C(F)(F)F)cc2)cc(C(CC(C)C)C(=O)O)c1)c1cccc(C(F)(F)F)c1 (stereo not shown) [Example 17, 4-Methyl-2-{5-[(3-methyl-butyl)-(3-trifluoromethyl-phenyl)-amino]-4′-trifluoromethyl-biphenyl-3-yl}-pentanoic acid] |
| 130 nM | CC(C)CCN(Cc1ccc(F)cc1)Cc1cc(-c2ccc(C(F)(F)F)cc2)cc(C(CC(C)C)C(=O)O)c1 (stereo not shown) [Compound 62, 2-(5-{[(4-Fluoro-benzyl)-(3-methyl-butyl)-amino]-methyl}-4′-trifluoromethyl-biphenyl-3-yl)-4-methyl-pentanoic acid] |
| 2150 nM | CC(C)CC(C(=O)O)c1cc(-c2ccc(C(F)(F)F)cc2)cc(N(C)c2ccc(Cl)cc2)c1 (single isomer, unassigned) [Example 22, (S*)2-{5-[(4-Chloro-phenyl)-methyl-amino]-4′-trifluoromethyl-biphenyl-3-yl}-4-methyl-pentanoic acid] |
| 640 nM | CC(C)CC(C(=O)O)c1cc(NCc2ccc(F)cc2C(F)(F)F)cc(-c2ccc(C(F)(F)F)cc2)c1 (stereo not shown) [Compound 51, 2-(5-(4-fluoro-2-(trifluoromethyl)benzylamino)-4′-(trifluoromethyl)biphenyl-3-yl)-4-methylpentanoic acid] |
| 580 nM | CC(C)CCN(Cc1ccc(C(C)(C)C)cc1)c1cc(-c2ccc(C(F)(F)F)cc2)cc(C(CC(C)C)C(=O)O)c1 (stereo not shown) [Compound 39, 2-{5-[(4-tert-Butyl-benzyl)-(3-methyl-butyl)-amino]-4′-trifluoromethyl-biphenyl-3-yl}-4-methyl-pentanoic acid] |
| 330 nM | CC(C)CC(C(=O)O)c1cc(-c2ccc(C(F)(F)F)cc2)cc(N(C)c2ccc(Cl)c(C(F)(F)F)c2)c1 (stereo not shown) [Example 9, 2-{5-[(4-Chloro-3-trifluoromethyl-phenyl)-methyl-amino]-4′-trifluoromethyl-biphenyl-3-yl}-4-methyl-pentanoic acid] |
| 190 nM | CC(C)CCN(Cc1cc(F)cc(F)c1)c1cc(-c2ccc(C(F)(F)F)cc2)cc([C@@H](CC(C)C)C(=O)O)c1 [Compound 40, 2-{5-[(3,5-Difluoro-benzyl)-(3-methyl-butyl)-amino]-4′-trifluoromethyl-biphenyl-3-yl}-4-methyl-pentanoic acid] |

same assay, conditions: concentration not given; SKNBE2 cells carrying APP 695 wild type

| % printed in the EC50 column, no concentration given | Compound |
| --- | --- |
| 8% | CC(C)CC(C(=O)O)c1cc(-c2ccc(C(F)(F)F)cc2)cc(N(C)c2ccc(C(C)C)cc2)c1 (stereo not shown) [Example 7, 2-{5-[(4-Isopropyl-phenyl)-methyl-amino]-4′-trifluoromethyl-biphenyl-3-yl}-4-methyl-pentanoic acid] |
